Where “and” joins values, the source holds several entries; their conditions need not be identical. Identical values can stand only once. Like-named read-outs stand apart in the source and are kept apart here.
Columns and labels:
[1] = system: bovine viral diarrhea virus (BVDV) strain NADL; test: BVDV CPE-inhibition assay in MDBK cells; type: cell-based
Procedure: The antiviral evaluation of selected BIT compounds against BVDV was outsourced to Southern Research Institute (SRI), Fredrick Md. USA. A simple cytoprotection format is used in which the antiviral efficacy of the compounds is assessed by their ability to reduce the cytopathic effect of BVDV infection in Madin-Darby bovine kidney cells (Buckwold et al., 2003)
(§1) A virus-induced cytopathogenic effects (CPE)-inhibition assay procedure was employed to evaluate compounds for antiviral activity against bovine viral diarrhea virus (BVDV) strain NADL, in Madin-Darby bovine kidney (MDBK) cells passaged in T-75 flasks (1, 2). Antiviral assays were designed to test six half-log concentrations of each compound in triplicate against the challenge virus. Cell controls (CC) containing medium alone, virus-infected cell controls (VC) containing medium and virus, drug cytotoxicity controls containing medium and each drug concentration, reagent controls containing culture medium only (no cells), and drug colorimetric controls containing drug and medium (no cells) are run simultaneously with the test samples. Human interferon-α 2b was used as a positive control compound. On the day preceding the assay, the cells were trypsinized, pelleted, counted and resuspended at 1×10^4/well in tissue culture medium in 96-well flat bottom tissue culture plates in a volume of 100 μl per well. One day following plating of cells, the wells were washed and the medium was replaced with complete medium (2% serum) containing various concentrations of test compound diluted in medium in a half-log series. A pre-titered aliquot of virus was removed from the freezer (−80° C.) just before each experiment. The virus was diluted into tissue culture medium such that the amount of virus added to each well would give complete cell killing at 6-7 days post-infection. The plates were incubated at 37° C. in a humidified atmosphere containing 5% CO2 until maximum CPE is observed in the untreated virus control cultures (˜day 7) Inhibition of CPE by the compound was determined using Cell Titer 96 (Promega). A colorimetric method for determining the number of viable cells was used. A computer program was utilized to calculate the percent of CPE reduction of the virus-infected wells and the percentage cell viability of uninfected drug control wells. […] A therapeutic (selectivity) index (TI50) for each active compound was determined by dividing the TC50 by the IC50.
(§2) Drug cytotoxicity was measured separately in uninfected cells. Eleven BIT compounds were tested in the first experiment in which the compounds were added to the cells just prior to infection and were maintained throughout the entire experiment. Two of them, BIT225 and BIT314 returned sub-micromolar IC50 values (see Table 2 below).

[2] = target: T1, HCV p7 ion channel protein (Hepatitis C virus genotype 1a, UniProt P27958); test: Bacterial bioassay: growth of E. coli expressing HCV p7; type: cell-based; set-up: scale not given here; settings: cumulative averaged scores; result above zero indicates potential anti-viral activity
T1 construct: codons were optimised for expression of the p7 protein in E. coli; expressed in transfected cells; host or cells: E. coli carrying plasmid pPLp7 (pPL451 backbone, temperature-inducible)
Description: The bacterial bioassay method used in the present example to test the anti-viral activity of the compounds against different viral targets was described in detail in PCT/2004/000866, incorporated in its entirety herein by reference. This assay is used in conjunction with the GBV-B and BVDV assays described below, to ensure that all active compounds are identified, some of which are active in one or the other of the assays, while some compounds may be active in both assays.
Briefly, the bacterial bio-assay for screening potential anti-HCV compounds is based on the HCV p7 ion channel protein. p7 is a small membrane protein encoded by HCV, which has a functional activity supporting viral growth and/or replication.
The p7-encoding synthetic cDNA fragment cDp7.coli, in which codons were optimised for expression of the p7 protein in E. coli, was cloned into the expression plasmid pPL451, creating the vector pPLp7, in which p7 expression is temperature inducible, as described in detail in PCT/2004/000866. Inhibition of the growth of E. coli cells expressing p7 at 37° C. was observed as an indicator of p7 ion channel function dissipating the normal Na+gradient maintained by the bacterial cells. Halos of growth around a particular compound application site indicate that the compound has inhibited expression of the p7 ion channel activity that prevents growth in the absence of the compound.
The positive controls were used in this assay to ensure that the assay was working rather than for comparison of relative activities of the compounds.

[3] = system: Madin-Darby bovine kidney (MDBK) cells; test: Drug cytotoxicity in uninfected MDBK cells; type: cell-based; settings: for TC50: uninfected MDBK cells
Description: as §1, §2

GBV-B p13 ion channel = target: T2, GBV-B p13 ion channel (Hepatitis GB virus B, UniProt Q69422); settings: synthetic peptide of two C-terminal transmembrane helices of p13; Premkumar et al., 2006; cited from earlier work
T2 construct: a synthetic peptide corresponding to the two C-terminal transmembrane helices of p13 (which share the greatest homology to p7); host or cells: chemically synthesised peptide

[4] = Bovine viral diarrhea virus isolates and strains, MDBK, nucleoside analog tested individually against BVDV, read-out: EC50
[5] = BVDV in MDBK cells, compound added just prior to infection and maintained, N/A = not achieved, read-out: IC50
[6] = Bovine viral diarrhea virus isolates and strains, MDBK, Table 2a, read-out: BVDV IC50

T1 sequence (P27958 747-809): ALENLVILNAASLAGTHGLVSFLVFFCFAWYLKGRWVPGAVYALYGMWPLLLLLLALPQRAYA
T2 sequence (Q69422 670-732): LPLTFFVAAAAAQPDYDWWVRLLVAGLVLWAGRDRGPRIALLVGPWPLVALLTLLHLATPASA

Row | Molecule | Average Bacterial Assay Score HCV p7 [2] | IC50 [1, 6] | also measured
1 | C[C@@]1(O)[C@H](O)[C@@H](CO)O[C@H]1n1cnc2c(N)ncnc21 [2′-C-methyladenosine, reference compound] |  |  | EC50 [1, 4]: 2.16 µM
2 | C[C@@]1(O)[C@H](O)[C@@H](CO)O[C@H]1n1ccc(N)nc1=O [2′-C-methylcytidine, reference compound] |  |  | EC50 [1, 4]: 2.75 µM
3 | N=C(N)NC(=O)C=Cc1cccc(Br)c1 [BIT067, (3-Bromocinnamoyl)guanidine] | 2.00 |  | 
4 | N=C(N)NC(=O)C=Cc1cc(Br)ccc1F [BIT124, 5-bromo-2-fluorocinnamoylguanidine] | 2.70 |  | TC59 [3]: 5.21 µM
5 | N=C(N)NC(=O)/C=C/c1cccc(C(=O)c2ccccc2)c1 [BIT216, (3-benzoyl)cinnamoylguanidine] | 1.3 |  | 
6 | N=C(N)NC(=O)/C=C/c1cccc2c1OCO2 [BIT217, 2,3-methylenedioxycinnamoyl guanidine] | 1.0 |  | 
7 | Cc1cccc2cc(C(=O)NC(=N)N)ccc12 [BIT218, 5-methyl-2-napthoylguanidine] | 1.7 |  | 
8 | N=C(N)NC(=O)/C=C/c1cccc2c1CCC2 [BIT222, 3(indan-4-yl)-propenoylguanidine] | 2.0 |  | 
9 | COc1ccc2cc(C(=O)NC(=N)N)ccc2c1Br [BIT223, 5-bromo-6-methoxy-2-napthoylguanidine] | 0.5 |  | IC50 [1, 5]: 4380 nM; TC50 [3]: >30.0 µM
10 | N=C(N)NC(=O)c1ccc2c(-c3ccsc3)cccc2c1 [BIT224, 5-thiophen-3-yl-2-naphthoylguanidine] | 1.10 |  | 
11 | N=C(N)NC(=O)C=Cc1ccc(Cl)c(Cl)c1 [BIT300, 3,4-dichlorocinnamoyl guanidine] | 1.12 |  | TC59 [3]: 3.69 µM
12 | COc1c(C(=O)NC(=N)N)ccc2ccccc12 [BIT301, (1-methoxy-2-napthoyl)guanidine] | 0.25 | > 20000 nM | 
13 | COc1cc2ccccc2cc1C(=O)NC(=N)N [BIT302, (3-methoxy-2-napthoyl)guanidine] | 0.76 | 7210 nM | 
14 | N=C(N)NC(=O)c1ccc2c(Br)cccc2c1 [BIT303, (5-bromo-2-napthoyl)guanidine] | 0.62 | 13600 nM | 
15 | COc1cc(C(=O)NC(=N)N)c(OC)c2ccccc12 [BIT304, (1,4-dimethoxy--2-napthoyl)guanidine] | 0.60 | > 20000 nM | 
16 | N=C(N)NC(=O)c1ccc2cc(-c3ccsc3)ccc2c1 [BIT305, (6-(3-thienyl)-2-napthoyl)guanidine] | 0.08 | > 20000 nM | 

Row | Molecule | Average Bacterial Assay Score HCV p7 [2] | IC50 [1, 6] | also measured
17 | Cc1ccc2cc(C(=O)NC(=N)N)ccc2c1 [BIT306, (6-methyl-2-napthoyl)guanidine] | 0.07 | 14500 nM | 
18 | N=C(N)NC(=O)c1ccc2c(-c3ccccc3)cccc2c1 [BIT307, (5-phenyl-2-napthoyl)guanidine] | 0.46 | 1990 nM | 
19 | N=C(N)NC(=O)c1ccc2c(-c3cccs3)cccc2c1 [BIT308, (5-(thien-2-yl)-2-napthoyl)guanidine] | 0.55 | 8730 nM | 
20 | CC(C)Cn1cc(-c2cccc3cc(C(=O)NC(=N)N)ccc23)cn1 [BIT310, (5-(1-isobutyl-1H-pyrazol-4-yl)-2-napthoyl)guanidine] | 0.36 | > 20000 nM | 
21 | N=C(N)NC(=O)c1ccc2c(-c3ccoc3)cccc2c1 [BIT311, (5-(3-furyl)-2-napthoyl)guanidine] | 0.81 | 2960 nM | 
22 | N=C(N)NC(=O)c1ccc2c(C3CC3)cccc2c1 [BIT312, (5-cyclopropyl-2-napthoyl)guanidine] | 1.00 | 8630 nM | 
23 | N=C(N)NC(=O)c1ccc2c(Cl)cccc2c1 [BIT313, (5-chloro-2-napthoyl)guanidine] | 1.30 | 9640 nM | 
24 | CC(=O)O.Cn1cc(-c2ccc3cc(C(=O)NC(=N)N)ccc3c2)cn1 [BIT314, (6-(1-methylpryazol-4-yl)-2-napthoyl)guanidinium acetate] | 4.03 | 390 nM | IC50 [1, 5]: 210 nM; EC50 ([1]; Bovine viral diarrhea virus isolates and strains, MDBK, drug alone, average of experiments, read-out: average EC50): 0.3 µM; EC50 ([1]; Bovine viral diarrhea virus isolates and strains, MDBK, in the presence of 5 IU/ml IFNα plus 1.25 μg/ml ribavirin, read-out: EC50): 0.183 µM; EC50 ([1]; Bovine viral diarrhea virus isolates and strains, MDBK, in the presence of 40 IU/ml IFNα, read-out: EC50): ~0.06 µM; EC50 ([1]; drug alone, average of experiments, read-out: average EC50): 0.38 µM; EC50 ([1]; drug tested individually against BVDV, read-out: EC50): 0.21 µM and 0.39 µM and 0.54 µM; IC50 values (in words) ([1]; first experiment, Table 2): sub-micromolar; TC50 [3]: 11.6 µM
25 | COc1ccc(-c2cccc3cc(C(=O)NC(=N)N)ccc23)c(OC)n1 [BIT315, (5-(2,6-dimethoxypryridin-3-yl)-2-napthoyl)guanidine] | 0.20 | > 20000 nM | 
26 | N=C(N)NC(=O)c1ccc2c(-c3ccccc3Cl)cccc2c1 [BIT316, (5-(2-chlorophenyl)-2-napthoyl)guanidine] | 0.37 | > 20000 nM | 
27 | CC(=O)Nc1ccc(-c2cccc3cc(C(=O)NC(=N)N)ccc23)cc1 [BIT317, (5-(4-(acetylamino)phenyl)-2-napthoyl)guanidine] | 0.06 | 6020 nM | 
28 | CC(=O)Nc1cccc(-c2cccc3cc(C(=O)NC(=N)N)ccc23)c1 [BIT318, (5-(3-(acetylamino)phenyl)-2-napthoyl)guanidine] | 0.73 | > 20000 nM | 
29 | CS(=O)(=O)Nc1ccc(-c2cccc3cc(C(=O)NC(=N)N)ccc23)cc1 [BIT319, (5-(4-((methylsulphonyl)amino)phenyl)-2-napthoyl)guanidine] | 0.10 | > 20000 nM | 
30 | NC(N)=NC(=O)c1nc(Cl)c(N2CCCCCC2)nc1N [HMA] |  |  | effect on p13 ion channel (GBV-B p13 ion channel): does not inhibit
31 | NC12CC3CC(CC(C3)C1)C2 [amantadine] |  |  | effect on p13 ion channel (GBV-B p13 ion channel): blocked
32 | IFN-α |  |  | inhibition ([1]; 5 IU/ml IFNα alone): ~8%; IC50 ([1]; BVDV in MDBK cells, positive control): 20.6 IU/mL; EC50 ([1]; drug tested individually against BVDV): 21.7 IU/ml; TC59 [3]: >500 IU/mL

— patent US20100254942A1, “HEPATITIS C ANTIVIRAL COMPOSITIONS AND METHODS” (BIOTRON LIMITED, priority 2007, published 2010)
